How the values were obtained:
Staphylococcus aureus [1] = assay: Staphylococcus aureus host cell invasion assay in HUVEC, flow cytometry; assay type: cell-based; conditions: HUVEC; for inhibition of invasion compared with ML 141 (Table 1): 10 μM, flow cytometry; for activity at 10 µM: Staphylococcus aureus, 1 h, read-out: Internalized bacteria (% control ± SEM), Structural analog
Experimental: In one embodiment, human umbilical vein endothelial cells (HUVEC, Life Technologies) are cultured in M200 medium supplemented with LSGS. RAW 264.7 cells (American Type Culture Collection, ATCC, Manassas, Va.) are cultured in RPMI supplemented with 10% FBS and L-glutamine. All cell types are maintained at 5% CO2, 37° C., in 75 cm^2 vented cap flasks (Thermo-Fisher). For assays, cultured cells are plated at 1×10^5 cells/ml in 35 mm culture dishes coated with Attachment Factor. The next day, cells are pretreated in culture medium containing the vehicle control or ML 141. For compound delivery, ML 141 first is suspended into DMSO or into PEG at a concentration of 5 mM. The 5 mM solution is diluted to 1 mM in the solvent and then diluted to the final concentration for each experiment in either serum-containing or serum-free medium. For vehicle control treatment, the same volume of PEG or DMSO as that of ML 141 is added to medium. The following day, the invasion assay is performed. For the shorter duration experiments, compound is added on the same day as the invasion assay, 1 hour prior to bacteria.
In another embodiment, HUVEC (Millipore, Billerica, Mass.) are cultured in EndoGRO LS Complete Media (Millipore) and are maintained at 5% CO2, 37° C., in 75 cm^2 vented cap flasks (Thermo-Fisher). For the invasion assay, cultured cells are plated at 1×10^4 cells/ml in 96-well culture dishes coated with Attachment Factor. The next day, cells are pretreated in culture medium containing the vehicle control, ML 141, or ML 141 structural analog. For compound delivery, ML 141 and structural analogs first are suspended into PEG at a concentration of 5 mM. The 5 mM solution is diluted to 1 mM in the solvent and then is diluted to the final concentration for each experiment in serum containing medium. For vehicle control treatment, the same volume of PEG as that of ML 141 or of ML 141 structural analog is added to the medium. The following day, the invasion assay is performed. Bacteria are added directly to medium containing vehicle control, ML 141, or the ML 141 structural analog.
Two days prior to the assay, TSB is inoculated with S. aureus (American Type Culture Collection #29213) and incubated overnight (225 rpm, 37° C.). Bacteria are subcultured the next day into fresh TSB. On the day of the assay, bacteria are pelleted (10000×g, 37° C., 3 min), are washed in saline, are pelleted as above, are resuspended in saline, then fluorescently labeled by incubation with rabbit anti-mouse IgG Alexa Fluor 488 (final concentration 8 μg/ml, RT, 20 min). Protein A, a S. aureus cell surface protein, avidly binds IgG thereby labeling the bacteria. Labeled bacteria are washed twice as above and are resuspended to 3×10^8 CFU/ml in saline. Host cells are incubated with the bacteria for 1 hour (1.2×10^8 CFU/ml for same-day recovery, 5×10^6 for recovery after 48 hours, 1.4×10^7 CFU/ml; 5% CO2, 37° C.). Following infection, extracellular bacteria are removed by extensive washes with PBS and incubation of the host cells with antimicrobials that have limited mammalian membrane permeability (lysostaphin, 20 μg/ml and gentamicin, 50 μg/ml; 45 min for same-day recovery studies, 48 hours for 2-day recovery studies; 5% CO2, 37° C.). To detect the level of infection using flow cytometry, cells that have been infected with fluorescently-labeled bacteria are washed extensively with PBS, lifted from 96-well plate by incubation with trypsin, washed extensively in FACS buffer (2% BSA/0.1% sodium azide/PBS), fixed (FACS buffer containing 0.74% formaldehyde), and are counted using an Accuri flow cytometer (BD, Franklin Lakes, N.J.). They are also lifted from culture dishes using cell scrapers, pelleted, fixed (1% BSA/0.74% formaldehyde/PBS), and are counted using an Accuri flow cytometer. For enumeration of the infecting bacteria, intracellular bacteria are released from host cells using 1% saponin/PBS (20 min, 5% CO2, 37° C.) and serial dilutions are plated on TSA (16 hours, 37° C.). […]

CDC42 = CDC42 (Homo sapiens, UniProt P60953); assay: BODIPY-FL-GTP binding to CDC42
actin stress fibers = assay: Actin stress fiber depolymerization in HUVEC during S. aureus infection; assay type: cell-based, human; conditions: 18-20 h pretreatment, S. aureus 1 h
Experimental: FIG. 8A is an image depicting ML 141 limiting actin stress fiber depolymerization during infection. Human umbilical vein endothelial cells (HUVEC) were incubated with ML 141 or with the vehicle control polyethylene glycol (PEG) 18-20 h prior to infection with Staphylococcus aureus (1 h). Actin was detected using Alexa Fluor 488 phalloidin. Arrows indicate intact actin stress fibers. Arrowhead indicates cell lacking actin stress fibers. 100 cells/treatment were evaluated from randomly selected fields. Data are presented as the % of cells in which actin stress fibers were not detected. Scale bar is 50 μm.
FIG. 8B is an image depicting RSM 06 limiting actin stress fiber depolymerization during infection. Human umbilical vein endothelial cells (HUVEC) were incubated with RSM 06 or with the vehicle control polyethylene glycol (PEG) 18-20 h prior to infection with Staphylococcus aureus (1 h). Actin was detected using Alexa Fluor 488 phalloidin. 200 cells/treatment were evaluated from randomly selected fields. Data are presented as the % of cells in which actin stress fibers were not detected. Scale bar is 50 μm.
FIG. 8C is an image depicting RSM 16 limiting actin stress fiber depolymerization during infection. Human umbilical vein endothelial cells (HUVEC) were incubated with RSM 16 or with the vehicle control polyethylene glycol (PEG) 18-20 h prior to infection with Staphylococcus aureus (1 h). Actin was detected using Alexa Fluor 488 phalloidin. 200 cells/treatment were evaluated from randomly selected fields. Data are presented as the % of cells in which actin stress fibers were not detected. Scale bar is 50 μm.
HUVEC are plated at 1×10^5 cells/ml into 35 mm glass-bottom dishes (MatTek, Ashland, Mass.) are coated with Attachment Factor, are pretreated, and are infected (1.2×10^8 CFU) as described above. […] Alexa 488 is excited by the 488 nanommeter Ar laser line and is detected using a 505-530 nanometer bandpass filter. […] Maximum pixel projections from the Z-stacks are generated and are analyzed for actin morphology.

Staphylococcus aureus [2] = assay: Assessment of bactericidal activity (HUVEC media); assay type: cell-based; conditions: 1.2 × 10^8 CFU S. aureus, 1 h in HUVEC media; 10 μM
Experimental: FIG. 6B illustrates that neither cytotoxicity nor bactericidal activity is detected. Cultures of Staphylococcus aureus that had been incubated with the vehicle control DMSO or with ML 141 (1 hour, 37° C., 225 rpm) were serially diluted, plated onto blood agar, and incubated (18 hours, 37° C.). Colonies were enumerated and colony forming units (CFU)/ml determined. CFU/ml were not different amongst the groups (p>0.05 by t-test; n=2/treatment). […]

[3] = system: Human umbilical vein endothelial cells; assay: Cytotoxicity by propidium iodide exclusion, HUVEC; assay type: cell-based; conditions: HUVEC pretreated 18-20 h

CDC42, sequence (P60953 whole entry): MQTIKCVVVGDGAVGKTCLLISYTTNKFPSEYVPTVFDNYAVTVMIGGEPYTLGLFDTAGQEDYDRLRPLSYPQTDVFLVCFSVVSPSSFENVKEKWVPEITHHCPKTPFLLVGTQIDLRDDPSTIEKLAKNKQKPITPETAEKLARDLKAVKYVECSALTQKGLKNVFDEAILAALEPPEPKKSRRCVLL

COc1ccc(C2=NN(c3ccc(S(N)(=O)=O)cc3)C(c3ccc4c(c3)OCO4)C2)cc1 (stereo not drawn) [RSM 06]
inhibition of invasion compared with ML 141 (Table 1) (Staphylococcus aureus [1]): inhibited invasion more than ML 141
activity at 10 µM (Staphylococcus aureus [1]): 23 ± 1%
IC50 (CDC42): 10.1 µM
depolymerization of actin stress fibers during infection (actin stress fibers): limited actin depolymerization
CFU (×10^8 ± SEM), Compound (10 μM) (Staphylococcus aureus [2]): 4.9 ± 1.6 ×10^8 CFU
Mean fluorescence intensity (×10^4 ± SEM), Compound (10 μM) [3]: 2.8 ± 0.1 ×10^4

COc1ccc(C2=NN(c3ccc(S(N)(=O)=O)cc3)C(c3ccc(OC)c(OC)c3)C2)cc1 (stereo not drawn) [RSM 16]
inhibition of invasion compared with ML 141 (Table 1) (Staphylococcus aureus [1]): inhibited invasion more than ML 141
activity at 10 µM (Staphylococcus aureus [1]): 63 ± 4%
IC50 (CDC42): 3.7 µM
depolymerization of actin stress fibers during infection (actin stress fibers): limited actin depolymerization
CFU (×10^8 ± SEM), Compound (10 μM) (Staphylococcus aureus [2]): 8.9 ± 1.9 ×10^8 CFU
Mean fluorescence intensity (×10^4 ± SEM), Compound (10 μM) [3]: 1.4 ± 0.2 ×10^4
